In patent publication US11034725B2, “Compositions and methods for treating cardiovascular disease” (Genentech, Inc., priority 2016, dated 2021):
pIC50: −log10 of the molar value. Numbered stars: 1 amine (or outer) side, 2 acyl side, 3 side chain; on linkers, the order of the positions; unused ones are H or OH. Square brackets hold non-standard residues; d marks the D form. Peptide text beside a SMILES is read from it. * marks the point of attachment. Butanoyl(4-(4-HOPh)) = O=C(CCCc1ccc(O)cc1)*; X43 = CS(=O)(=O)c1ccc(C(=O)CCC(=O)*)cc1; Desaminohistidyl = O=C(CCc1c[nH]cn1)*; Desaminotyrosyl = O=C(CCc1ccc(O)cc1)*; Butanoyl(4-OPh) = O=C(CCCOc1ccccc1)*; X16 = O=C(c1cc(-c2ccncc2)[nH]n1)*; X14 = O=C(CC1CCN([*:1])CC1)[*:2]; hArg = N=C(N)NCCCC[C@H](N)C(=O)O; X24 = CN1CCC(n2cc(C(=O)*)cn2)C1; X22 = O=C(C1CC(Cc2ccccc2)C1)*; X6 = O=C(Cn1ccc(=O)[nH]c1=O)*; X42 = O=C(c1ccc2cc[nH]c2c1)*; X18 = COc1ccc(OCCC(=O)*)cc1; X25 = COc1cc(CCC(=O)*)ccc1O; X15 = COc1cccc(CCC(=O)*)c1; X40 = CC(CC(=O)*)CC(C)(C)C; X30 = O=C(CCc1cccc(O)c1)*; X35 = Nc1ccc(CCC(=O)*)cn1; Cbz = O=C(OCc1ccccc1)*; Pentanoyl = CCCCC(=O)*; X41 = O=C(CCn1cncn1)*; GABA = NCCCC(=O)O; Ms = CS(=O)(=O)*

Experiments:
PCSK9Δhelix = biological target: T1, PCSK9Δhelix (Homo sapiens, UniProt Q8NBP7); experiment: PCSK9Δhelix/Ab20 TR-FRET binding assay; settings: TR-FRET; Table 8E, additional compounds; read-out: PCSK9Δhelix/Ab20 IC50
T1 construct: Human PCSK9 construct M1-Q692 with an engineered TEV site (residue deletion Y166, R167); made in house; host or cells: CHO
T1 sequence (Q8NBP7 with tags, fused parts or gaps limits assumed): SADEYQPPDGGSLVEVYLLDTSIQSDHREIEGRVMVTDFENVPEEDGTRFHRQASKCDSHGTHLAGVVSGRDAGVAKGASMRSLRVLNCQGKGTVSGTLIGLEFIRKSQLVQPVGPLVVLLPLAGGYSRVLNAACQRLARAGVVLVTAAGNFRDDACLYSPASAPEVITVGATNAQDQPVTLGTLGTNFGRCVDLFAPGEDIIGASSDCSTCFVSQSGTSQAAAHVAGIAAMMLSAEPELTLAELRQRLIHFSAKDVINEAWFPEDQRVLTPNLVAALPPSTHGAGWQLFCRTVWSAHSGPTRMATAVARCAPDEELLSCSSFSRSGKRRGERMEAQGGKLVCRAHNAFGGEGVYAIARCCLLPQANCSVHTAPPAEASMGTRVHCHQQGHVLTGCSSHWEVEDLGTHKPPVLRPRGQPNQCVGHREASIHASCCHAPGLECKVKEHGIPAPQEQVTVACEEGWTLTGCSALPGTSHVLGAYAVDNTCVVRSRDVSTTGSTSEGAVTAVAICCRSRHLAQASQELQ
T1 sequence (Q8NBP7 31-152 partner limits assumed): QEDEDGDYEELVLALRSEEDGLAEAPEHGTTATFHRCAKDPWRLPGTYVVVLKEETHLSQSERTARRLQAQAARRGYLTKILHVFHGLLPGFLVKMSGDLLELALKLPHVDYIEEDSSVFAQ

PCSK9 = PCSK9 (Homo sapiens, UniProt Q8NBP7); experiment: PCSK9/EGF(A) TR-FRET binding assay; settings: TR-FRET; Table 8E, additional compounds; read-out: PCSK9/EGF(A) IC50
Sequence of PCSK9 (Q8NBP7 153-692): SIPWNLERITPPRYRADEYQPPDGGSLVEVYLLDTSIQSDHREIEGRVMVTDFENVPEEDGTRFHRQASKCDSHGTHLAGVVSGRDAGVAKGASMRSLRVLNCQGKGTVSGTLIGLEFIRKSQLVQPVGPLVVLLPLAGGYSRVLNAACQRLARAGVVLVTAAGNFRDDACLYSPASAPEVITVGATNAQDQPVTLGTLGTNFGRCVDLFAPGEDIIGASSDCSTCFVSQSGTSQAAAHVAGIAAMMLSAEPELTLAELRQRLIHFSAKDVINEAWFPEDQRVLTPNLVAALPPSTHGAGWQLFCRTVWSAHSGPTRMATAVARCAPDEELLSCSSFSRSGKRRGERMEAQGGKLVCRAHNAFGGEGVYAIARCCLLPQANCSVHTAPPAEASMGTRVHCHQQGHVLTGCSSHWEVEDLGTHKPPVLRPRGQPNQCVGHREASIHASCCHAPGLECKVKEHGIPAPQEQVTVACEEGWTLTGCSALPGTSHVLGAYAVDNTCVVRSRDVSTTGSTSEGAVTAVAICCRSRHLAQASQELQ
Sequence of PCSK9 (Q8NBP7 31-152 partner limits assumed): as the sequence (Q8NBP7 31-152 partner limits assumed) above

| SMILES | pIC50 (PCSK9Δhelix) | pIC50 (PCSK9) |
| --- | --- | --- |
| CC[C@H](C)[C@H](NC(=O)[C@H](CCCNC(=N)N)NC(=O)[C@@H](NC(=O)[C@H](CC(C)C)NC(=O)[C@H](CC(N)=O)NC(=O)[C@H](Cc1c[nH]c2ccccc12)NC(=O)CCc1c[nH]cn1)C(C)C)C(=O)NCC(=O)N[C@@H](CC(C)C)C(=O)N[C@@H](CC(C)C)C(=O)N[C@@H](CCCNC(=N)N)C(N)=O [Compound 132] (Desaminohistidyl-WNLVRIGLLR-NH2) | 5.05 | ≤ 4.30 |
| CC[C@H](C)[C@H](NC(=O)[C@H](CCCCNC(=N)N)NC(=O)[C@@H](NC(=O)[C@H](CC(C)C)NC(=O)[C@H](CC(N)=O)NC(=O)[C@H](Cc1c[nH]c2ccccc12)NC(=O)CCCOc1ccccc1)C(C)C)C(=O)NCC(=O)N[C@@H](CC(C)C)C(=O)N[C@@H](CC(C)C)C(=O)N[C@@H](CCCNC(=N)N)C(N)=O [Compound 209] ({Butanoyl(4-OPh)}-WNLV[hArg]IGLLR-NH2) | 6.35 | 5.54 |
| CC[C@H](C)[C@H](NC(=O)[C@H](CCCCNC(=N)N)NC(=O)[C@@H](NC(=O)[C@H](CC(C)C)NC(=O)[C@H](CC(N)=O)NC(=O)[C@H](Cc1c[nH]c2ccccc12)NC(=O)CCc1ccc(O)cc1)C(C)C)C(=O)NCC(=O)N[C@@H](CC(C)C)C(=O)N[C@@H](CC(C)C)C(=O)N[C@@H](CCCNC(=N)N)C(N)=O [Compound 214] (Desaminotyrosyl-WNLV[hArg]IGLLR-NH2) | 6.68 | 5.52 |
| CC[C@H](C)[C@H](NC(=O)[C@H](CCCNC(=N)N)NC(=O)[C@@H](NC(=O)[C@H](CC(C)C)NC(=O)[C@H](CC(N)=O)NC(=O)[C@H](Cc1c[nH]c2ccccc12)NC(=O)c1cnn(C2CCN(C)C2)c1)C(C)C)C(=O)NCC(=O)N[C@@H](CC(C)C)C(=O)N[C@@H](CC(C)C)C(=O)N[C@@H](CCCNC(=N)N)C(N)=O (stereo partly drawn) [Compound 129] (X24-WNLVRIGLLR-NH2) | 4.64 | ≤ 4.30 |
| CC[C@H](C)[C@H](NC(=O)[C@H](CCCCNC(=N)N)NC(=O)[C@@H](NC(=O)[C@H](CC(C)C)NC(=O)[C@H](CC(N)=O)NC(=O)[C@H](Cc1c[nH]c2ccccc12)NC(=O)CCc1cccc(OC)c1)C(C)C)C(=O)NCC(=O)N[C@@H](CC(C)C)C(=O)N[C@@H](CC(C)C)C(=O)N[C@@H](CCCNC(=N)N)C(N)=O [Compound 202] (X15-WNLV[hArg]IGLLR-NH2) | 6.47 | 5.59 |
| CC[C@H](C)[C@H](NC(=O)[C@H](CCCNC(=N)N)NC(=O)[C@@H](NC(=O)[C@H](CC(C)C)NC(=O)[C@H](CC(N)=O)NC(=O)[C@H](Cc1c[nH]c2ccccc12)NC(=O)CCc1ccc(N)nc1)C(C)C)C(=O)NCC(=O)N[C@@H](CC(C)C)C(=O)N[C@H](C(=O)N[C@@H](CCCNC(=N)N)C(N)=O)[C@@H](C)O [Compound 171] (X35-WNLVRIGLTR-NH2) | 5.11 | ≤ 4.30 |
| CC[C@H](C)[C@H](NC(=O)[C@H](CCCCNC(=N)N)NC(=O)[C@@H](NC(=O)[C@H](CC(C)C)NC(=O)[C@H](CC(N)=O)NC(=O)[C@H](Cc1c[nH]c2ccccc12)NC(=O)c1ccc2cc[nH]c2c1)C(C)C)C(=O)NCC(=O)N[C@@H](CC(C)C)C(=O)N[C@@H](CC(C)C)C(=O)N[C@@H](CCCNC(=N)N)C(N)=O [Compound 222] (X42-WNLV[hArg]IGLLR-NH2) | 5.85 | 4.68 |
| CC[C@H](C)[C@H](NC(=O)[C@H](CCCNC(=N)N)NC(=O)[C@@H](NC(=O)[C@H](CC(C)C)NC(=O)[C@H](CC(N)=O)NC(=O)[C@H](Cc1c[nH]c2ccccc12)NC(=O)CCn1cncn1)C(C)C)C(=O)NCC(=O)N[C@@H](CC(C)C)C(=O)N[C@@H](CC(C)C)C(=O)N[C@@H](CCCNC(=N)N)C(N)=O [Compound 142] (X41-WNLVRIGLLR-NH2) | 4.82 | ≤ 4.30 |
| CC[C@H](C)[C@H](NC(=O)[C@H](CCCCNC(=N)N)NC(=O)[C@@H](NC(=O)[C@H](CC(C)C)NC(=O)[C@H](CC(N)=O)NC(=O)[C@H](Cc1c[nH]c2ccccc12)NC(=O)CCCc1ccc(O)cc1)C(C)C)C(=O)NCC(=O)N[C@@H](CC(C)C)C(=O)N[C@@H](CC(C)C)C(=O)N[C@@H](CCCNC(=N)N)C(N)=O [Compound 220] ({Butanoyl(4-(4-HOPh))}-WNLV[hArg]IGLLR-NH2) | 6.04 | 4.43 |
| CC[C@H](C)[C@H](NC(=O)[C@H](CCCNC(=N)N)NC(=O)[C@@H](NC(=O)[C@H](CC(C)C)NC(=O)[C@H](CC(N)=O)NC(=O)[C@H](Cc1c[nH]c2ccccc12)NC(=O)c1cc(-c2ccncc2)[nH]n1)C(C)C)C(=O)NCC(=O)N[C@@H](CC(C)C)C(=O)N[C@@H](CC(C)C)C(=O)N[C@@H](CCCNC(=N)N)C(N)=O [Compound 150] (X16-WNLVRIGLLR-NH2) | 5.09 | 4.66 |
| CC[C@H](C)[C@H](NC(=O)[C@H](CCCNC(=N)N)NC(=O)[C@@H](NC(=O)[C@H](CC(C)C)NC(=O)[C@H](CC(N)=O)NC(=O)[C@H](Cc1c[nH]c2ccccc12)NC(=O)C1CC(Cc2ccccc2)C1)C(C)C)C(=O)NCC(=O)N[C@@H](CC(C)C)C(=O)N[C@H](C(=O)N[C@@H](CCCNC(=N)N)C(N)=O)[C@@H](C)O (stereo partly drawn) [Compound 184] (X22-WNLVRIGLTR-NH2) | 4.92 | 4.72 |
| CC[C@H](C)[C@H](NC(=O)[C@H](CCCNC(=N)N)NC(=O)[C@@H](NC(=O)[C@H](CC(C)C)NC(=O)[C@H](CC(N)=O)NC(=O)[C@H](Cc1c[nH]c2ccccc12)NC(=O)Cn1ccc(=O)[nH]c1=O)C(C)C)C(=O)NCC(=O)N[C@@H](CC(C)C)C(=O)N[C@@H](CC(C)C)C(=O)N[C@@H](CCCNC(=N)N)C(N)=O [Compound 143] (X6-WNLVRIGLLR-NH2) | 4.64 | ≤ 4.30 |
| CC[C@H](C)[C@H](NC(=O)[C@H](CCCCNC(=N)N)NC(=O)[C@@H](NC(=O)[C@H](CC(C)C)NC(=O)[C@H](CC(N)=O)NC(=O)[C@H](Cc1c[nH]c2ccccc12)NC(=O)CCOc1ccc(OC)cc1)C(C)C)C(=O)NCC(=O)N[C@@H](CC(C)C)C(=O)N[C@@H](CC(C)C)C(=O)N[C@@H](CCCNC(=N)N)C(N)=O [Compound 203] (X18-WNLV[hArg]IGLLR-NH2) | 5.80 | 4.68 |
| CC[C@H](C)[C@H](NC(=O)[C@H](CCCNC(=N)N)NC(=O)[C@@H](NC(=O)[C@H](CC(C)C)NC(=O)[C@H](CC(N)=O)NC(=O)[C@H](Cc1c[nH]c2ccccc12)NC(=O)CCC(=O)c1ccc(S(C)(=O)=O)cc1)C(C)C)C(=O)NCC(=O)N[C@@H](CC(C)C)C(=O)N[C@H](C(=O)N[C@@H](CCCNC(=N)N)C(N)=O)[C@@H](C)O [Compound 163] (X43-WNLVRIGLTR-NH2) | 4.43 | ≤ 4.30 |
| CC[C@H](C)[C@H](NC(=O)[C@H](CCCCNC(=N)N)NC(=O)[C@@H](NC(=O)[C@H](CC(C)C)NC(=O)[C@H](CC(N)=O)NC(=O)[C@H](Cc1c[nH]c2ccccc12)NC(=O)CCc1ccc(O)c(OC)c1)C(C)C)C(=O)NCC(=O)N[C@@H](CC(N)=O)C(=O)N[C@@H](CCCNC(=N)N)C(N)=O [Compound 240] (X25-WNLV[hArg]IGNR-NH2) | 6.04 | 4.51 |
| CCCCC(=O)N[C@@H](Cc1c[nH]c2ccccc12)C(=O)N[C@@H](CC(N)=O)C(=O)N[C@@H](CC(C)C)C(=O)N[C@H](C(=O)N[C@@H](CCCCNC(=N)N)C(=O)N[C@H](C(=O)NCC(=O)N[C@@H](CC(C)C)C(=O)N[C@@H](CC(C)C)C(=O)N[C@@H](CCCNC(=N)N)C(N)=O)[C@@H](C)CC)C(C)C [Compound 191, n-BuC(O)-WNLV(homoR)IGLLR-NH2] (Pentanoyl-WNLV[hArg]IGLLR-NH2) | 5.89 | ≤ 4.30 |
| CC[C@H](C)[C@H](NC(=O)[C@H](CCCNC(=N)N)NC(=O)[C@@H](NC(=O)[C@H](CC(C)C)NC(=O)[C@H](CC(N)=O)NC(=O)[C@H](Cc1c[nH]c2ccccc12)NC(=O)CC1CCN(S(C)(=O)=O)CC1)C(C)C)C(=O)NCC(=O)N[C@@H](CC(C)C)C(=O)N[C@@H](CC(C)C)C(=O)N[C@@H](CCCNC(=N)N)C(N)=O [Compound 133] (Ms-[X14]WNLVRIGLLR-NH2) | 4.77 | ≤ 4.30 |
| CC[C@H](C)[C@H](NC(=O)[C@H](CCCCNC(=N)N)NC(=O)[C@@H](NC(=O)[C@H](CC(C)C)NC(=O)[C@H](CC(N)=O)NC(=O)[C@H](Cc1c[nH]c2ccccc12)NC(=O)[C@H](N)Cc1ccc(O)cc1)C(C)C)C(=O)NCC(=O)N[C@@H](CC(C)C)C(=O)N[C@@H](CC(C)C)C(=O)N[C@@H](CCCNC(=N)N)C(N)=O [Compound 223] (H-[dY]WNLV[hArg]IGLLR-NH2) | 5.85 | 4.68 |
| CC[C@H](C)[C@H](NC(=O)[C@H](CCCNC(=N)N)NC(=O)[C@@H](NC(=O)[C@H](CC(C)C)NC(=O)[C@H](CC(N)=O)NC(=O)[C@H](Cc1c[nH]c2ccccc12)NC(=O)CC(C)CC(C)(C)C)C(C)C)C(=O)NCC(=O)N[C@@H](CC(C)C)C(=O)N[C@@H](CC(C)C)C(=O)N[C@@H](CCCNC(=N)N)C(N)=O (stereo partly drawn) [Compound 149] (X40-WNLVRIGLLR-NH2) | 5.05 | 4.96 |
| CC[C@H](C)[C@H](NC(=O)[C@H](CCCNC(=N)N)NC(=O)[C@@H](NC(=O)[C@H](CC(C)C)NC(=O)[C@H](CC(N)=O)NC(=O)[C@H](Cc1c[nH]c2ccccc12)NC(=O)CCCNC(=O)OCc1ccccc1)C(C)C)C(=O)NCC(=O)N[C@@H](CC(C)C)C(=O)N[C@H](C(=O)N[C@@H](CCCNC(=N)N)C(N)=O)[C@@H](C)O [Compound 169] ({Cbz-GABA}-WNLVRIGLTR-NH2) | 5.17 | ≤ 4.30 |
| CC[C@H](C)[C@H](NC(=O)[C@H](CCCNC(=N)N)NC(=O)[C@@H](NC(=O)[C@H](CC(C)C)NC(=O)[C@H](CC(N)=O)NC(=O)[C@H](Cc1c[nH]c2ccccc12)NC(=O)CCc1cccc(O)c1)C(C)C)C(=O)NCC(=O)N[C@@H](CC(C)C)C(=O)N[C@H](C(=O)N[C@@H](CCCNC(=N)N)C(N)=O)[C@@H](C)O [Compound 168] (X30-WNLVRIGLTR-NH2) | 5.11 | ≤ 4.30 |
